Experimental data published in ChEMBL document CHEMBL6087427, “Discovery of novel cyclopentane carboxylic acids as potent and selective inhibitors of NaV1.7” (Bioorg Med Chem Lett, 2025).
Each block holds one molecule with its values, some of them ahead of it.

Tests used:
[1] = molecular target: T1, Sodium channel protein type 9 subunit alpha (Homo sapiens, UniProt Q15858); test: Displacement of [3H]GX-545 from Nav1.7 VSD4 (unknown origin)
Target sequence in this assay (Q15858 whole entry): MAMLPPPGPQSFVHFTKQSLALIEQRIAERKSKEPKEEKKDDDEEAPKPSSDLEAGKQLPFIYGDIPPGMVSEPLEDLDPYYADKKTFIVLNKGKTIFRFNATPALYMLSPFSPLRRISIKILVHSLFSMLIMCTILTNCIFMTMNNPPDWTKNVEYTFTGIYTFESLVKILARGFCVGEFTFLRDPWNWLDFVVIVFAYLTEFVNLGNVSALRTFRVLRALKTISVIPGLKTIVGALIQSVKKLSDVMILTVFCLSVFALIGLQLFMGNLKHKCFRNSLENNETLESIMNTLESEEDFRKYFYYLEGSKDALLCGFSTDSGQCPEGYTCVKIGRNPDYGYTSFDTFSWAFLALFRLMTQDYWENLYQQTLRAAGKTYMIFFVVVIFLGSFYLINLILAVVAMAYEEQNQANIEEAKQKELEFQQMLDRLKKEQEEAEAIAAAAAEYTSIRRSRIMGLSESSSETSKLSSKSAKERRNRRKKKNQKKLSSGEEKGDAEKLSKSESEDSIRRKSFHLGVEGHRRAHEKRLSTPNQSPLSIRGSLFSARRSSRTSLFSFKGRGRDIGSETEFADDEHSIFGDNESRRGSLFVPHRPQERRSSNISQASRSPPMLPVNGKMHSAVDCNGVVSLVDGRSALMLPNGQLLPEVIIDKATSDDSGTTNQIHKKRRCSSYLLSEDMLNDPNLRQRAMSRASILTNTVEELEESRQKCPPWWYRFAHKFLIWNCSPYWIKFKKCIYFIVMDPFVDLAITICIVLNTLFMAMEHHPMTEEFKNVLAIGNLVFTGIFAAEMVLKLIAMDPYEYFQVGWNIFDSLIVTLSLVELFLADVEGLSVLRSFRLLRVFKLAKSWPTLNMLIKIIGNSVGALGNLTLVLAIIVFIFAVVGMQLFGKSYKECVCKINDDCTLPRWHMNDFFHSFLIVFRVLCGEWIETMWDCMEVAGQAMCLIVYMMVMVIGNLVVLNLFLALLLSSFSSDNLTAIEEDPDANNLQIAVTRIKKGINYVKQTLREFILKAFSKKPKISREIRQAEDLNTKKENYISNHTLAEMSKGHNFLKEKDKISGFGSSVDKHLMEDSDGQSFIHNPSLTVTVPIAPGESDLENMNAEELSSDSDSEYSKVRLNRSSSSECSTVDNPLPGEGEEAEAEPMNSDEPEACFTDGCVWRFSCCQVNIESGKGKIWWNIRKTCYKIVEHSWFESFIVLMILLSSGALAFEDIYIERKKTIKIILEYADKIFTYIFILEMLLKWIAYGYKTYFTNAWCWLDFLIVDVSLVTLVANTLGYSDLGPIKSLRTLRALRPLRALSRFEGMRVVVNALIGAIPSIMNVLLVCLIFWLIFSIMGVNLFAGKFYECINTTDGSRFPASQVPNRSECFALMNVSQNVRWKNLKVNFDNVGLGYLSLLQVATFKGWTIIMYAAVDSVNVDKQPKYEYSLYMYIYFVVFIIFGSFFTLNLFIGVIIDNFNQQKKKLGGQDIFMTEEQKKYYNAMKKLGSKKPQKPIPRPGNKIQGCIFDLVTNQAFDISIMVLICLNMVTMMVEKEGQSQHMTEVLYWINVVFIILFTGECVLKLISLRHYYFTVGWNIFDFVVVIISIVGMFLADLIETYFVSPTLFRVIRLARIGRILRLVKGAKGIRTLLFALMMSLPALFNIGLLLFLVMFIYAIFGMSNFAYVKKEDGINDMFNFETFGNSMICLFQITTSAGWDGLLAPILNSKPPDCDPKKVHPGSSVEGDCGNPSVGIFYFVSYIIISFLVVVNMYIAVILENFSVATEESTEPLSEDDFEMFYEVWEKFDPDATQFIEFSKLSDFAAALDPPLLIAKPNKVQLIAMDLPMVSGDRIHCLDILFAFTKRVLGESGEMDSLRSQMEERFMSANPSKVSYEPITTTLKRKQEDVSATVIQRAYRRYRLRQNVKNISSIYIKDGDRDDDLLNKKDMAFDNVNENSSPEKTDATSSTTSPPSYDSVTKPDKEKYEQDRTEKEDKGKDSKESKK

[2] = molecular target: Sodium channel protein type 5 subunit alpha (Homo sapiens, UniProt Q14524); test: Inhibition of human Nav1.5 by patch clamp electrophysiology
[3] = Metabolic stability in mouse liver microsomes assessed as hepatic clearance; format: ADME, Microsome
[4] = AUC in mouse at 3 mg/kg, po; format: ADME, organism-based; conditions: in vivo, read-out: AUC
[5] = molecular target: T1, Sodium channel protein type 9 subunit alpha; test: Inhibition of human Nav1.7 by patch clamp electrophysiology
Target sequence in this assay (Q15858 whole entry): as above

[6] = molecular target: T1, Sodium channel protein type 9 subunit alpha; test: Inhibition of human Nav1.7 assessed as fold shift in IC50 in presence of BSA by sodium flux assay
Target sequence in this assay (Q15858 whole entry, looked up): as the sequence (Q15858 whole entry) above

[7] = Metabolic stability in human liver microsomes assessed as hepatic clearance; format: ADME, Microsome
[8] = molecular target: T1, Sodium channel protein type 9 subunit alpha; test: Inhibition of human Nav1.7 by sodium flux assay
Target sequence in this assay (Q15858 whole entry): as above

Sequence of Sodium channel protein type 5 subunit alpha (Q14524 whole entry): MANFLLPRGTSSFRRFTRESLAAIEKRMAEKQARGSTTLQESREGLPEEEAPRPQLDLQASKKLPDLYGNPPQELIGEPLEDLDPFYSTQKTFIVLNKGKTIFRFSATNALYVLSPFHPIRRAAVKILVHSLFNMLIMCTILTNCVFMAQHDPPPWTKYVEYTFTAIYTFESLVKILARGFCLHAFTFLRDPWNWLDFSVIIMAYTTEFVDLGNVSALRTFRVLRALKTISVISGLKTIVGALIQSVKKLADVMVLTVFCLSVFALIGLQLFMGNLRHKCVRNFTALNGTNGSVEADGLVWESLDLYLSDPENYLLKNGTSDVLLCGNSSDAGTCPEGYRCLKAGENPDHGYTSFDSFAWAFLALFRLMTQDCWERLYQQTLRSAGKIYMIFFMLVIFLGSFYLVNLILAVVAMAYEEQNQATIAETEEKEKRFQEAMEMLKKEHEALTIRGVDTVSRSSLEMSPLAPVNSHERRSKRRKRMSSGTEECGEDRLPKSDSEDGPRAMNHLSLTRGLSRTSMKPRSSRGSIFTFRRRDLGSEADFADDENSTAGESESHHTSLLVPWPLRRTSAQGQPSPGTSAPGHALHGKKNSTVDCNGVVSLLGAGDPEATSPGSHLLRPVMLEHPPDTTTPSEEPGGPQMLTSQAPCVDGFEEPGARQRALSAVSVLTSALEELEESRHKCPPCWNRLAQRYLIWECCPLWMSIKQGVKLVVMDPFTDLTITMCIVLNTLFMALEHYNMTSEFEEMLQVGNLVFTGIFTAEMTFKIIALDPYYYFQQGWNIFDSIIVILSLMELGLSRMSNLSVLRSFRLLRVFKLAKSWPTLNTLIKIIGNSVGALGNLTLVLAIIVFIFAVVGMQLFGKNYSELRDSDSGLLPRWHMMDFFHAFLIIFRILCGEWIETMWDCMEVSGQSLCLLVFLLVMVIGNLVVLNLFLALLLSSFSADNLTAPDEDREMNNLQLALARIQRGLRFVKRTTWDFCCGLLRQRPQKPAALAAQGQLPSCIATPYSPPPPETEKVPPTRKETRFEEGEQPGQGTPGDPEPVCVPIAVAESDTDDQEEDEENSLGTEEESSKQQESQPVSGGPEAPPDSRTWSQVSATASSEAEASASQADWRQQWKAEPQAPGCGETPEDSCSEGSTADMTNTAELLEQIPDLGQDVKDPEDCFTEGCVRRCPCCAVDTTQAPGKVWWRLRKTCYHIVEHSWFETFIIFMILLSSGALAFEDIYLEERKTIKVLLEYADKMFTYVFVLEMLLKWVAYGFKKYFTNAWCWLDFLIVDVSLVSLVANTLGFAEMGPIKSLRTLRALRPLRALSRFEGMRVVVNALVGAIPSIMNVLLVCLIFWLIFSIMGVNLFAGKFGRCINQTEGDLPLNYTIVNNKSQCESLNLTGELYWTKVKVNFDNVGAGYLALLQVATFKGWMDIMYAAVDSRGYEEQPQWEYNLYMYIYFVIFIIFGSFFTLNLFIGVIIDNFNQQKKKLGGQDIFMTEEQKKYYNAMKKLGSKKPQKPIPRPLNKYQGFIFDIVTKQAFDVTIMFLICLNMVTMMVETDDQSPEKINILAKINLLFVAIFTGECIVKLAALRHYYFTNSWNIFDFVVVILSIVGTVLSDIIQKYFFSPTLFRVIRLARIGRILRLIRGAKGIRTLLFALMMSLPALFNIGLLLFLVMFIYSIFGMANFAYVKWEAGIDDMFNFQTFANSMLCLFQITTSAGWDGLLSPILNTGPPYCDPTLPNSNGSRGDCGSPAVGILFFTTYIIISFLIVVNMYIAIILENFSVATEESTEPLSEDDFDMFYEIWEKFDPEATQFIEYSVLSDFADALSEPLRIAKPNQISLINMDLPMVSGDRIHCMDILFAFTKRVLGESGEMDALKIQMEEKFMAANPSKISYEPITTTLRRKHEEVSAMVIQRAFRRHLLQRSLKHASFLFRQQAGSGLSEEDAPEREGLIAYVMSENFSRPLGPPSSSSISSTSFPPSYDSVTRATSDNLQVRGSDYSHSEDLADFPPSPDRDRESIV

SMILES: C[C@H]1[C@H](O)CN(C(=O)c2cc(C3CC3)c(OCC34CC5CC(CC(C5)C3)C4)cc2F)[C@@H]1C(=O)O
- Ki [1]: 0.021 µM

SMILES: O=C(O)[C@@H]1C2CC(C2)N1C(=O)c1cc(C2CC2)c(OCC23CC4CC(CC(C4)C2)C3)cc1F
- Ki [1]: 0.19 µM

SMILES: O=C(O)[C@@H]1[C@@H](O)CCN1C(=O)c1cc(C2CC2)c(OCC23CC4CC(CC(C4)C2)C3)cc1F
- Ki [1]: 0.6 µM

SMILES: CC1(C)CCN(C(=O)c2cc(C3CC3)c(OCC34CC5CC(CC(C5)C3)C4)cc2F)[C@@H]1C(=O)O
- Ki [1]: 0.058 µM

SMILES: O=C(O)[C@@H]1[C@@H](F)CCN1C(=O)c1cc(C2CC2)c(OCC23CC4CC(CC(C4)C2)C3)cc1F
- Ki [1]: 0.06 µM

SMILES: C[C@@H]1C[C@@H](C(=O)O)N(C(=O)c2cc(C3CC3)c(OCC34CC5CC(CC(C5)C3)C4)cc2F)C1
- Ki [1]: 0.085 µM

SMILES: N#C[C@@H]1C[C@@H](C(=O)O)N(C(=O)c2cc(C3CC3)c(OCC34CC5CC(CC(C5)C3)C4)cc2F)C1
- Ki [1]: 0.12 µM

SMILES: CO[C@@H]1CN(C(=O)c2cc(C3CC3)c(OCC34CC5CC(CC(C5)C3)C4)cc2F)[C@H](C(=O)O)[C@H]1C
- Ki [1]: 0.036 µM

SMILES: O=C(O)[C@@H]1C[C@H](O)CN1C(=O)c1cc(C2CC2)c(OCC23CC4CC(CC(C4)C2)C3)cc1F
- Ki [1]: 0.15 µM

The next molecules have a lower Ki [1] than those just listed; values first:

- Ki [1]: 0.01 µM
SMILES: C[C@H]1CCN(C(=O)c2cc(C3CC3)c(OCC34CC5CC(CC(C5)C3)C4)cc2F)[C@@H]1C(=O)O

- Ki [1]: 0.007 µM
SMILES: O=C(O)[C@@H]1C[C@@H](F)CN1C(=O)c1cc(C2CC2)c(OCC23CC4CC(CC(C4)C2)C3)cc1F

- Ki [1]: 0.0064 µM
- CLhep predicted [3]: 64 mL/min/kg
- AUC [4]: 0.16 µM·h
- IC50 [5]: 0.01 µM
- fold change (FC) [6]: 1
- CLhep predicted [7]: 13 mL/min/kg
SMILES: C[C@@H]1[C@@H](C(=O)O)N(C(=O)c2cc(C3CC3)c(OCC34CC5CC(CC(C5)C3)C4)cc2F)C[C@@H]1F
- IC50 [2]: 5.8 µM

- Ki [1]: 0.0018 µM
- IC50 [8]: 0.16 µM
- CLhep predicted [3]: 53 mL/min/kg
- AUC [4]: 0.24 µM·h
- IC50 [5]: 0.01 µM
- fold change (FC) [6]: 1
- CLhep predicted [7]: 11 mL/min/kg
SMILES: C[C@@H]1[C@@H](C(=O)O)[C@H](C(=O)c2cc(C3CC3)c(OCC34CC5CC(CC(C5)C3)C4)cc2F)C[C@@H]1F
- IC50 [2]: 6 µM
